In US20250129086A1, “COMPOUND FOR DEGRADING EGFR PROTEIN AND USE THEREOF” (TYK MEDICINES, INC., priority 2021, published 2025) one finds IC50 data, which are given here for 17 molecules.

This assay has as its system H1975 (EGFR L858R/T790M double mutation). The assay can be described thus: Cell antiproliferative assay (CTG, 72 h), H1975. The settings on record: Table 2, H1975 cells. The class given is cell-based, human. How it is done:
Test Example 1 Cell Antiproliferative Assay
H1975: with EGFR: L858R/T790M double mutation; PC-9 with EGFR exon 19 deletion, HCC827 with exon 19 deletion mutation. CellCounting-Lite2.0, Trypsin EDTA, 37° C. CO2 incubator, cell counter, EnVision Serial No.1050454. II. Experimental preparation:
• (A) Trypsin EDTA was used to digest log-phase cells, medium was added to terminate the reaction, and a cell suspension was made by blowing and mixing with a pipette. • (B) Cell concentration was determined using Vi-cell, and a suspension of 15,000-25,000 cells per milliliter was made depending on the purpose of the experiment and the characteristics of the cells. • (C) After the cell suspension was prepared, it was gently mixed and 100 microliters per well was added so that the density of cells to be tested was 1500-2500 per well.
• (A) About 2 mg of compound was weighed, and the volume of DMSO required was calculated according to the formula: compound mass (mg)*compound purity (%)/compound molecular weight*1000 • (B) The inoculated cell culture plates were incubated in an incubator and the compounds with concentration gradient were added after about 24 hours. • (C)10 Mm of compound stock solution was diluted to […] with medium, and 50 Mm of compound solution was added sequentially to the second column of the deep-well plate, and […] of medium containing 0.5% DMSO was added to the third to eleventh columns. • (D) Gradient dilution: 125 μl of solution was pipetted from the second column and added to the third column, after mixing; another 125 μl of solution was pipetted from the third column and added to the fourth column, and the operation was repeated until the tenth column. • (E)25 μl of compound was pipetted from the deep-well plate into a 96-well culture plate using a multichannel pipette, and each compound was repeated three times on the 96-well plate. A maximum concentration of 10,000 nm with concentration gradient of 1:4 was eventually formed on the 96-well plate.
• (A)96-well plates were incubated in an incubator for 72 h. The effect of the compounds was observed under an inverted microscope. • (B)25 μl of CTG solution was added to each well, the plate was put on shaker for 10 minutes and the […] of each well was read.
The cell viability rate (% Cell Viability) was calculated using the following formula: • % Cell Viability=100%×(Lum_Sample-Lum_LC)/(Lum_HC-Lum_LC) • Lum_HC: Cell reading of 0.1% DMSO control • Lum_Sample: Cell reading with compound added • Lum_LC: Reading of Blank media • IC50 values were obtained by curve fitting with GraphPad Prism 8 software.

Structures are written as SMILES.

For the setting “Homo sapiens, NCI-H1975, 72 h”, `COC(=O)c1ccccc1Nc1nc(Nc2ccc(N3CCN(C(=O)CN4CCC(c5ccc(NC6CCC(=O)NC6=O)cc5)CC4)CC3)cc2OC)ncc1Cl` (centres unmarked) [Compound T-194] gave an IC50 of 100 to 1000 nM.
Take `COc1cc(N2CCN(C(=O)CN3CCN(c4ccc5c(c4)C(=O)N(C4CCC(=O)NC4=O)C5=O)CC3)CC2)ccc1Nc1ncc(Cl)c(Nc2ccccc2C(C)=O)n1` (centres unmarked) [Compound T-201]: the IC50 (Homo sapiens, NCI-H1975, 72 h) lay in the range of 100 to 1000 nM.
Same read-out and setting: next, `COc1cc(N2CCN(C(=O)C3CCN(CC4CCN(c5ccc6c(c5)C(=O)N(C5CCC(=O)NC5=O)C6=O)CC4)CC3)CC2)ccc1Nc1ncc(Cl)c(Nc2ccccc2C(C)=O)n1` (centres unmarked) [Compound T-204]: 100 to 1000 nM.
On the same count and under the same terms, next, `COc1nc(N2CCN(C(=O)CN3CCC(c4ccc(NC5CCC(=O)NC5=O)cc4)CC3)CC2)ccc1Nc1ncc(Cl)c(Nc2ccccc2C(C)=O)n1` (centres unmarked) [Compound T-208]: 100 to 1000 nM.
The same measure, in the same setting: next, `COc1cc(N2CCN(C(=O)CNc3ccc4c(c3)C(=O)N(C3CCC(=O)NC3=O)C4=O)CC2)ccc1Nc1ncc(Cl)c(Nc2ccccc2C(C)=O)n1` (centres unmarked) [Compound T-230]: 100 to 1000 nM; `COc1cc(N2CCN(CC(=O)NCCNc3cccc4c3C(=O)N(C3CCC(=O)NC3=O)C4=O)CC2)ccc1Nc1ncc(Cl)c(Nc2ccccc2C(C)=O)n1` (centres unmarked) [Compound T-238]: 100 to 1000 nM.
On to `COc1cc(N2CCN(C(=O)CN3CCC(c4ccc5c(cnn5C5CCC(=O)NC5=O)c4)CC3)CC2)ccc1Nc1ncc(Cl)c(Nc2ccccc2)n1` (centres unmarked) [Compound T-326], for which the IC50 (Homo sapiens, NCI-H1975, 72 h) lay within 100 to 1000 nM.
On the same count and under the same terms, the value for `COC(=O)Nc1ccccc1Nc1nc(Nc2ccc(N3CCN(C(=O)CN4CCC(c5ccc(NC6CCC(=O)NC6=O)cc5)CC4)CC3)cc2OC)ncc1Cl` (centres unmarked) [Compound T-340] was 100 to 1000 nM; that for `CCc1cc(Nc2ncc(Cl)c(Nc3ccccc3C(=O)NC)n2)c(OC)cc1N1CCN(C(=O)CN2CCC(c3ccc(NC4CCC(=O)NC4=O)cc3)CC2)CC1` (centres unmarked) [Compound T-361] was 10 to 100 nM.
The same measure, in the same setting: next, `CCc1cc(Nc2ncc(Br)c(Nc3ccccc3C(=O)NC)n2)c(OC)cc1N1CCN(C(=O)CN2CCC(c3ccc(NC4CCC(=O)NC4=O)cc3)CC2)CC1` (centres unmarked) [Compound T-362]: 10 to 100 nM.
On the same count and under the same terms, next, `CCc1cc(Nc2ncc(C(F)(F)F)c(Nc3ccccc3C(=O)NC)n2)c(OC)cc1N1CCN(C(=O)CN2CCC(c3ccc(NC4CCC(=O)NC4=O)cc3)CC2)CC1` (centres unmarked) [Compound T-363]: 10 to 100 nM; `CNC(=O)c1ccccc1Nc1nc(Nc2cc(C)c(N3CCN(C(=O)CN4CCN(c5ccc(NC6CCC(=O)NC6=O)cc5)CC4)CC3)cc2OC)ncc1Cl` (centres unmarked) [Compound T-364]: 10 to 100 nM; `CCNC(=O)c1ccccc1Nc1nc(Nc2ccc(N3CCN(C(=O)CN4CCC(c5ccc(NC6CCC(=O)NC6=O)cc5)CC4)CC3)cc2OC)ncc1Br` (centres unmarked) [Compound T-374]: 10 to 100 nM.
Consider `CCc1cc(Nc2ncc(Cl)c(Nc3ccccc3C(=O)NC)n2)c(OC)cc1N1CCN(C(=O)CN2CCC(c3ccc(NC4CCC(=O)NC4=O)cc3)CC2)CC1` (centres unmarked) [Compound T-375], for which the IC50 lay in the range of 10 to 100 nM.
Where the note is “Homo sapiens, NCI-H1975, 72 h”, `CNC(=O)c1ccccc1Nc1nc(Nc2cc(CC(F)(F)F)c(N3CCN(C(=O)CN4CCC(c5ccc(NC6CCC(=O)NC6=O)cc5)CC4)CC3)cc2OC)ncc1Cl` (centres unmarked) [Compound T-377] yielded an IC50 of 10 to 100 nM.
The same measure, in the same setting: the value for `CCc1cc(Nc2ncc(Cl)c(Nc3ccccc3C(C)=O)n2)c(OC)cc1N1CCN(C(=O)CN2CCC(c3ccc(NC4CCC(=O)NC4=O)cc3)CC2)CC1` (centres unmarked) [Compound T-378] was 10 to 100 nM; that for `CNC(=O)c1ccccc1Nc1nc(Nc2cc(CC(F)(F)F)c(N3CCN(C(=O)CN4CCC(c5ccc(NC6CCC(=O)NC6=O)cc5)CC4)CC3)cc2OC)ncc1Br` (centres unmarked) [Compound T-381] was 10 to 100 nM.
